One experiment deals with GluA3flop receptors. Also noted: method as in PMID 9221774, PMID 11408529. Particulars: Xenopus oocytes; cited from earlier work.
The next experiment relates to Rat AMPA receptors. The experiment can be described thus: AMPA-evoked currents, Xenopus laevis oocytes injected with rat cortex poly(A+) mRNA (two-electrode voltage clamp). The class given is cell-based. Particulars: for EC2X: concentration giving a two-fold increase in current amplitude; for EC2X / EC50: geometric mean; for Emax (fold increase): maximal potentiation, mean ± SEM; for EC50: potentiation of 10 μM AMPA-evoked current. As for the experimental part: (§1) Compounds were tested by bath application.

Another experiment concerns Human AMPA receptors. Put plainly: AMPA-evoked currents, Xenopus laevis oocytes injected with human hippocampal poly(A+) mRNA. The class given is cell-based. Conditions: for EC2X: concentration giving a two-fold increase in current amplitude; for EC2X / EC50: geometric mean; for Emax (fold increase): maximal potentiation, mean ± SEM; for EC50: potentiation of 10 μM AMPA-evoked current. As for the experimental part: as §1

The subject of experiment [1] is isolated prefrontal cortex pyramidal neurons. Also noted: method as in PMID 9221774, PMID 11408529. Conditions: patch-clamp; cited from earlier work.
The target of experiment [2] is T1, GluA1flop/GluA2flip AMPA receptors (Homo sapiens, UniProt P42261+P42262, Q607R).
T1 construct: host or cells: Xenopus laevis oocytes
T1 sequence (P42261 19-906): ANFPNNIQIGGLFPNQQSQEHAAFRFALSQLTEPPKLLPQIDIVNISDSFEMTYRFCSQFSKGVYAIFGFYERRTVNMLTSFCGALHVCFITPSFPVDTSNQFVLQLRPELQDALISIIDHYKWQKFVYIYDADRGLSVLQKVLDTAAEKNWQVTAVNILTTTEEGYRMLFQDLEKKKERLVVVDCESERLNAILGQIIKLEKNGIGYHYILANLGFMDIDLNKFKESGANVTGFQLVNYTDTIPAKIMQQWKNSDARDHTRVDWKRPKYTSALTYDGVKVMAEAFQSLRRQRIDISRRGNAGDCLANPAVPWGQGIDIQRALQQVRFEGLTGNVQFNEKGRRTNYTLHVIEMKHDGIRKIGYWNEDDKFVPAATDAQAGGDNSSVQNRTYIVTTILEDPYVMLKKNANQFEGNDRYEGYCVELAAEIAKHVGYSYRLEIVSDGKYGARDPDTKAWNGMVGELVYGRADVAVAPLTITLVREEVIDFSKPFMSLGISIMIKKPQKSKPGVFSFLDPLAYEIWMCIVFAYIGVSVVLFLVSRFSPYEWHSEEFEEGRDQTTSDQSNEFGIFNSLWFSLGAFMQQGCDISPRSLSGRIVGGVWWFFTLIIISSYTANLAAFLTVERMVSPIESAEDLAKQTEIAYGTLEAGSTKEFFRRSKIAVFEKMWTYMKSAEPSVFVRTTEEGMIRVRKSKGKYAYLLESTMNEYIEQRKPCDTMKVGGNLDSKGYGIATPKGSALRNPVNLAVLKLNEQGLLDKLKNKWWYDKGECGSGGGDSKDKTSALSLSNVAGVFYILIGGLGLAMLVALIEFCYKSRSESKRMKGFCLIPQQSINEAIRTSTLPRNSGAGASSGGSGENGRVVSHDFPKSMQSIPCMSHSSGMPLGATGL
T1 sequence (P42262 22-883 isoform P42262-2 Q607R limits assumed): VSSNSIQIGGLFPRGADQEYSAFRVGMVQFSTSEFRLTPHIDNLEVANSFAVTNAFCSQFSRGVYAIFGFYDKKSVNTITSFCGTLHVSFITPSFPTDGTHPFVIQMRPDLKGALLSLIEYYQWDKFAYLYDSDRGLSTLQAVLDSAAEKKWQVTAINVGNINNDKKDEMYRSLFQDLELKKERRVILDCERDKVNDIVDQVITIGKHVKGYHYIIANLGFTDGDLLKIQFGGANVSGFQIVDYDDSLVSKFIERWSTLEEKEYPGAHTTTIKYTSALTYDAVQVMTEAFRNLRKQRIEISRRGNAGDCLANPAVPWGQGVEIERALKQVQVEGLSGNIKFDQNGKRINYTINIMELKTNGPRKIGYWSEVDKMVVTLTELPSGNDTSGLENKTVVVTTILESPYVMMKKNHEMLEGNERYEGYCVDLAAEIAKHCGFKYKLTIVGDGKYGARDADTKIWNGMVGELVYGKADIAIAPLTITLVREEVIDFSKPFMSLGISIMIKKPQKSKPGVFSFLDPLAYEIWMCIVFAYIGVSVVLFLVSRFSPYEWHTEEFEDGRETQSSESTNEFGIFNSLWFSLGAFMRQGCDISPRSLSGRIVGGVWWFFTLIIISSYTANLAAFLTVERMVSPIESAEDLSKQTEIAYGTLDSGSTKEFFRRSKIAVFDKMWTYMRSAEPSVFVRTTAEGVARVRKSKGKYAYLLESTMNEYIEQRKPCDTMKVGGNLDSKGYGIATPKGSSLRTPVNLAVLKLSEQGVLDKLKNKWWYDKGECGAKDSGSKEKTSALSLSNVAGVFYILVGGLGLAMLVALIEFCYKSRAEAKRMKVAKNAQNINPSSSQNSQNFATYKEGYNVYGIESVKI
The experiment can be described thus: 10 μM glutamate-evoked currents in Xenopus laevis oocytes expressing GluA1flop/GluA2flip (repetitive pulses, GYKI52466). The class given is cell-based. Particulars: GYKI52466 10 to 1000 μM; 10 μM glutamate. The protocol:
as §1
To test the inhibition, the selective AMPA receptor antagonist GYKI52446 was used from 10 to 1000 μM on the potentiation caused by S 47445 (1 μM).
EC50 were determined either using Matlab (Mathworks inc., Natick, USA) or SAS v9.2 (SAS Institute inc., Cary, USA) softwares. To have a comparative value between the tested drugs when EC50 could not be determined (absence of plateau at high concentrations), the EC2X was determined. EC2X corresponds to the concentrations of the drug responsible for a two-fold increase in the amplitude of the current.

The subject of experiment [3] is rat primary cortical cell cultures. Put plainly: LDH release toxicity assay on rat primary cortical cell cultures. Particulars: MK801 1 μM; data not shown. A general note: LDH leaks from cells whose membrane has failed.

Molecules are shown by their SMILES.

On to `NC(=O)COc1c(F)cc(SCCNS(=O)(=O)c2ccccc2)cc1F` [PEPA, 4-[2-(Phenylsulfonylamino)ethylthio]-2,6-Difluoro-Phenoxyacetamide], for which the “Increase of agonist potency” value in the experiment with GluA3flop receptors is “approximately 7 fold”.
Broadly, the EC50 is the concentration needed to bring the measured effect to its halfway point. Take `O=C1c2cc3c(cc2OC2CCCN12)OCCO3` (centres unmarked) [CX614]: in the experiment with Rat AMPA receptors, the EC2X amounted to 1.03 µM, the “Emax (fold increase)” value is on record as 30.32 ± 5.67 fold increase and the EC50 was determined as 17.3 µM. Further, in the experiment on Human AMPA receptors, the EC2X stood at 0.88 µM, the “Emax (fold increase)” value is on record as 23.43 ± 2.32 fold increase and the EC50 turned out to be 11.4 µM.
As for `CC(CNS(=O)(=O)C(C)C)c1ccc(-c2ccsc2)cc1` (centres unmarked) [LY392098], the “Increase of agonist potency” value in experiment [1] is listed as “approximately 7 fold”.
For the molecule `NS(=O)(=O)c1cc2c(cc1Cl)NC(C1CC3C=CC1C3)NS2(=O)=O` (centres unmarked) [Cyclothiazide], in the experiment on Rat AMPA receptors, the EC2X was found to be 1.68 µM, the “Emax (fold increase)” value stood at 8.86 ± 0.79 fold increase and the EC50 is 8.83 µM. Also, in the experiment with Human AMPA receptors, the EC2X came out at 1.54 µM, the “Emax (fold increase)” value is 9.40 ± 2.61 fold increase and the concentration for a half-maximal effect (EC50) is 9.33 µM.
For `O=S1(=O)N[C@H]2CCCN2c2ccccc21` [S 18986], in the experiment with Rat AMPA receptors, the EC2X turned out to be 23.77 µM, the “Emax (fold increase)” value came out at 15.37 ± 2.21 fold increase and the EC50 is 125 µM. In addition, in the experiment on Human AMPA receptors, the EC2X was found to be 16.88 µM and the “Emax (fold increase)” value stood at 14.51 ± 1.53 fold increase.
For `CC(C)S(=O)(=O)NC[C@H](C)c1ccc(-c2ccc(CCNS(C)(=O)=O)cc2)cc1` [LY451395], in the experiment with Rat AMPA receptors, the EC2X stood at 0.04 µM, the “Emax (fold increase)” value came out at 14.03± 0.70 fold increase and the EC50 was found to be 0.37 µM.
In the case of `O=C(c1ccc2nccnc2c1)N1CCCCC1` [CX516], the “Emax (fold increase)” value in the experiment on Rat AMPA receptors was 1.72 ± 0.1 fold increase; in the experiment with Human AMPA receptors it was 3.13 fold increase.
Turning to `CC1=NN=C(c2ccc(N)cc2)c2cc3c(cc2C1)OCO3.Cl.Cl` [GYKI52466, 4-(8-Methyl-9H-1,3-dioxolo[4,5-h][2,3]benzodiazepin-5-yl)-benzenamine dihydrochloride, reference compound], the “Effect on the potentiation caused by S 47445 (1 μM)” value in experiment [2] is “concentration-dependently reversed”.
With `CC(CNS(=O)(=O)C(C)C)c1ccc(-c2ccc(C#N)cc2)cc1` (centres unmarked) [LY404187], in the experiment with Rat AMPA receptors, the EC2X amounted to 0.32 µM, the “Emax (fold increase)” value is recorded as 16.40 ± 2.22 fold increase and the EC50 was 3.01 µM. Further, in the experiment on Human AMPA receptors, the EC2X worked out at 0.37 µM, the “Emax (fold increase)” value is 29.67 ± 2.67 fold increase and the EC50 stood at 4.64 µM.
For `C[C@]12N[C@H](Cc3ccccc31)c1ccccc12` [MK801, reference compound], the “Effect on 100 μM glutamate-mediated toxicity” value in experiment [3] is on record as “completely reversed”.

(Values after publication PMC5590943, “Pharmacological characterisation of S 47445, a novel positive allosteric modulator of AMPA receptors” (PLoS ONE, 2017).)
